Residues, ends and D or L forms follow the SMILES beside them. *: point of attachment. Cbz = O=C(OCc1ccccc1)*
Tests used:
Cavα1 = assay: Western blot of YFP-Cavα1 in transfected COS-7 cells treated with Akt inhibitor and degradation-system inhibitors; format: cell-based
Experimental: FIG. 3. Akt mediates regulation of Cavα1 protein density at the plasma membrane. (A) RT-PCR analysis of Cavα1 mRNA expression from WT and KO ventricular extracts. GADPH serves as loading control. (B) Western blot analysis of whole lysate, membrane, and microsomal fractions from WT and KO ventricular extracts. (C) YFP-Cavα1 transfected COS-7 cells alone or in combination with Cavβ2-expression vector were serum-starved and treated with Akt inhibitor and 1 μM bafilomycin-A1, 25 μM MG132, or 25 μM calpeptin. 6 h post drug administration, cell lysates were prepared and subjected to Western blot analysis for YFP. GAPDH served as a loading control. (D-E) Cavα1 protein levels in KO cardiomyocytes infected with empty (mock) or active E40K-Akt (AdAkt) expressing adenoviral vector (D) and in whole lysates of WT and E40K-Akt (Tg Akt) hearts (E). Representative experiments are shown (n=4).
However, since the amount of Cavα1 was reduced in both microsomal and membrane fractions from KO extracts compared to WT (FIG. 3B), we hypothesized that the reduced Cavα1 level observed in KO mice was due to enhanced protein degradation in addition to impaired protein translocation to the plasma membrane. To assess the pathway involved in the Akt-dependent Cavα1 protein degradation, three sets of specific cell degradation system inhibitors were examined for their ability to prevent the decrease in Cavα1 protein elicited by Akt inhibition. […] Similar results were obtained by inhibiting calpain, the intracellular, Ca^2+-dependent cysteine protease known to be involved in membrane protein degradation (Belles et al., 1988; Romanin et al., 1991).
Cell transfection was performed in serum-starved medium using LipoFectamine2000 (Invitrogen) according to the manufacturer's instructions. 5 μM Akt-XI inhibitor (Calbiochem), insulin (Sigma), 1 μM bafilomycin-A 1 (Sigma), 25 μM MG132 (Calbiochem), and 25 μM Calpeptin (Calbiochem) were used as described. […]
Proteins expression was evaluated in total lysates or cell fractions by Western blot analysis according to standard procedures. […]

Cavα1 C-terminal domain = assay: GST pull-down in vitro binding assay; conditions: for Interaction with Cavα1 C-terminal domain: 35S-methionine-labeled C-Cavα1 (aa 1477-2169)
Source text: FIG. 7. Rapid-protein-degradation PEST sequences determine Cavα1 protein instability. (A) Schematic representation of Cavα1 mapping the α1-interacting domain (AID) and PEST sequences in the I-II and II-III cytosolic loops. Deleted PEST sequences (P, H) are highlighted in red. (B) Western blot and immunofluorescence analyses showing relative levels of WT and PEST deleted mutants of YFP-Cavα1 (n=3). Bar represents 5 μm. (C) Wild-type Cavα1 subunit (alone or cotransfected with Cavβ2SE) and its in-frame ΔPEST mutants (Cavα1-ΔP and Cavα1-ΔH) half-lives were determined in COST cells. After overnight starvation, transfected cells were pulse-chased and analyzed along a time course (*P<0.001 compared to Cavα1, ANOVA; n=3). (D) Western blot and immunofluorescence analyses showing relative levels of WT GFP and N-terminal fusion PEST mutants (n=3). Bar represents 20 μm. (E) The Cavα1 C-terminus interacts with the Akt-phosphorylated-GST-Cavβ2 coiled coil region. Bacterially expressed GST or GST-C-Cavβ2 (Cavβ2: aa 480-655) fusion protein and glutathione sepharose beads were incubated with equal amounts of in vitro translated [^35S] methionine-labeled C-Cavα1 (Cavα1: aa 1477-2169). […] Bound proteins were resolved by SDS-PAGE (4-12%). 10% of the input protein in each binding reaction is shown. Coomassie staining of SDS-PAGE is shown in the bottom panel. (F) Ca^2+ currents recorded in tsA-201 cells cotransfected with Cavβ2-WT and either Cavα1-WT or Cavα1-ΔH and cultivated for 36 h in the presence or absence of fetal bovine serum (10%). Current densities (pA/pF) are normalized to the control condition. n>35 at each condition, (*P<0.05 compared to Cavα1, ANOVA). […]
Affinity-purified GST-fusion proteins were generated using a pGEX system (Amersham) and phosphorylated as described below. […] Bound proteins were eluted in SDS sample buffer, subjected to SDS-PAGE, and detected by autoradiography. […]

Cavα1 currents = assay: Whole-cell patch clamp Ca2+ current (ICa,L) in cotransfected tsA-201 cells with or without serum; format: cell-based; conditions: cotransfection with Cavα1; 36 h
Experimental: FIG. 6. Akt phosphorylation of Cavβ2 preserves Cavα1 currents. Ca^2+ currents recorded in cotransfected tsA-201 cells with YFP-Cavα1 and either Cavβ2-WT, Cavβ2-SE, or Cavβ2-SA mutant, cultivated for 36 h in the presence or absence of fetal bovine serum (10%). Currents were recorded 1-2 minutes after the whole-cell configuration was achieved (i.e. after stabilization of the current) and were elicited by a 0 mV depolarization of 200 ms duration applied from a holding potential of −80 mV. Currents are normalized to cell capacitance (Current density, pA/pF). Representative current traces are shown. n>35 at each condition, (*P<0.05 compared to YFP-Cavα1, ANOVA).
FIG. 7. […] (C) Wild-type Cavα1 subunit (alone or cotransfected with Cavβ2SE) and its in-frame ΔPEST mutants (Cavα1-ΔP and Cavα1-ΔH) half-lives were determined in COST cells. After overnight starvation, transfected cells were pulse-chased and analyzed along a time course (*P<0.001 compared to Cavα1, ANOVA; n=3). […] (F) Ca^2+ currents recorded in tsA-201 cells cotransfected with Cavβ2-WT and either Cavα1-WT or Cavα1-ΔH and cultivated for 36 h in the presence or absence of fetal bovine serum (10%). […]
Macroscopic Ice, was recorded at room temperature (˜22° C.) using the whole-cell patch clamp technique in native cells as previously described (Aimond et al., 2005; Maier et al., 2003). […]

[1] = Cavα1 and Cavβ2 cotransfected cells, 1 μM bafilomycin-A1, 25 μM MG132 or 25 μM calpeptin, 6 h

CC(C)C[C@@H](C=O)NC(=O)[C@H](CC(C)C)NC(=O)[C@H](CC(C)C)NC(=O)OCc1ccccc1 [MG132] (Cbz-Leu-Leu-Leu-aldehyde) was tested, and the “Cavα1 protein decrease induced by Akt inhibition” value (Cavα1; [1]) was “failed to protect Cavα1 from protein degradation”.
For CO/C1=C\C(C)=C\[C@@H](C)[C@@H](O)[C@@H](C)C/C(C)=C/C=C/[C@H](OC)[C@@H]([C@@H](C)[C@@H](O)[C@H](C)[C@@]2(O)C[C@@H](O)[C@H](C)[C@@H](C(C)C)O2)OC1=O [bafilomycin-A1], the “Cavα1 protein decrease induced by Akt inhibition” value (Cavα1; [1]) was “prevented the decrease in Cavα1 protein induced by Akt inhibition” and the “Cavα1 protein decrease induced by Akt inhibition” value (Cavα1; absence of Cavβ2 cotransfection) was “protection effect was abolished”.
For “Akt-phosphorylated Cavβ2 C-terminal coiled coil region: bacterially expressed GST-C-Cavβ2 (Cavβ2: aa 480-655) fusion protein phosphorylated by recombinant Akt”, the “Interaction with Cavα1 C-terminal domain” value (Cavα1 C-terminal domain) was “direct interaction took place”, the “Interaction with Cavα1 C-terminal domain” value (Cavα1 C-terminal domain; listed as Akt-phosphorylated GST-C-Cavβ2) was “Binding occurred” and the “Interaction with other Cavα1 cytosolic domains” value (Cavα1 C-terminal domain; data not shown) was “No interactions were found”.
“Cavβ2-WT: wild-type Ca2+ beta2 channel accessory subunit” was tested, and the “ICa,L in serum-free medium compared to serum-containing medium” value (Cavα1 currents) was “significant depressed ICa,L”.

From patent US20120070451A1, “METHODS AND COMPOSITIONS FOR MODULATING CARDIAC CONTRACTILITY” (Consiglio Nazionale Delle Ricerche, priority 2009, published 2012)
